Test results from patent US9012182B2, “Method for producing purine nucleosides and nucleotides by fermentation using bacterium belonging to the genus Bacillus or Escherichia” (Ajinomoto Co., Inc., priority 2004, dated 2015).

Key:
Assay type in all cases: cell-based
[1] = tested on: E. coli deoD gsk3 (pYDHL1); assay: Growth on minimal medium with inosine or guanosine, ydhL-amplified strain; conditions: for Resistance conferred by ydhL gene overexpression: summary in words of Table 2, pYDHL1 versus pMW118; for Growth on the minimal medium containing Guanosine 10 mg/l: key: +: good growth; −: no growth; for Growth on the minimal medium containing Guanosine 15 mg/l: key: +: good growth; −: no growth; for Growth on the minimal medium containing Inosine 1000 mg/l: key: +: good growth; −: no growth; for Growth on the minimal medium containing Inosine 300 mg/l: key: +: good growth; −: no growth
Method: (§1) The pYDHL1 plasmid and the vector were used to transform the E. coli strain TG1 (Amersham Pharmacia Biotech) via standard techniques. Transformants were selected on L-broth agar plates with 100 μg/ml ampicillin. Thus, the E. coli strains TG1 (pYDHL1) and TG1 (pMW118) were obtained. Then the ability of these strains to grow in the presence of purine base analogues was determined on M9 glucose minimal agar plates containing graded concentrations of an inhibitor. The plates were spotted with 10^5 to 10^6 cells from an overnight culture grown in a minimal medium (supplemented with 100 μg/ml of ampicillin). The growth was estimated after 44 h incubation at 37° C.
(§2) The pYDHL1 plasmid and the pMW118 vector were also transformed into the E. coli strain TG1 deoD gsk3. The E. coli strain TG1 deoD gsk3 was an especially constructed parental strain which is used for checking the resistance to inosine and guanosine. This strain was obtained by sequential introduction of a deoD mutation, as described in PCT application WO9903988 and gsk3 mutation described by Petersen C. (J. Biol. Chem., 274, 5348-5356, 1999) using phage P1-mediated transduction into the known strain TG1 (VKPM B-5837), which is resistant to inosine and guanosine due to its ability to degrade purine. The strain TG1 deoD gsk3 cannot degrade guanosine and inosine due to a deoD mutation (WO9903988), and it is sensitive to nucleosides due to a gsk3 mutation (Petersen C. J. Biol. Chem., 274, 5348-5356, 1999). Thus, the strains TG1 deoD gsk3 (pYDHL1) and TG1 deoD gsk3 (pMW118) were obtained. Then the ability of these strains to grow in the presence of inosine and guanosine was determined as above.

[2] = tested on: E. coli deoD gsk3 (pMW118); assay: Growth on minimal medium with inosine or guanosine, vector control strain; note: key: +: good growth; −: no growth
Method: as §1, §2

B. subtilis 168(pYDHL3) = assay: Growth on M9 glucose minimal agar with purine analogues, ydhLBs-amplified strain; conditions: 48 h at 34° C. Note: key: +: good growth; −: no growth.
Method: (§3) The pYDHL3, pYDHL4 plasmids and the pMWMX1 vector were used to transform wild-type B. subtilis strain 168 via standard techniques. Transformants were selected on L-broth agar plates with 10 μg/ml erythromycin. Thus, the strains B. subtilis 168(pMWMX1), B. subtilis 168(pYDHL3) and B. subtilis 168(pYDHL4) were obtained. Then, the ability of these strains to grow in the presence of purine base analogues was determined on M9 glucose minimal agar plates (minimal medium M9, glucose-2%, vitamin assay casamino acids (Difco)—0.1%, tryptophan—100 μg/ml) containing graded concentrations of a purine analogue. The plates were spotted with 10^5 to 10^6 cells from an overnight culture grown on the above agar plates without the analogues. The growth was estimated after 48 h incubation at 34° C.

B. subtilis 168(pYDHL4) = assay: Growth on M9 glucose minimal agar with purine analogues, ydhLBa-amplified strain; conditions: 48 h at 34° C. Note: key: +: good growth; −: no growth.
Method: as §3

B. subtilis 168 = assay: Growth on M9 glucose minimal agar with purine analogues, control strain; conditions: 48 h at 34° C.
Method: as §3

[3] = tested on: E. coli strain TG1 (pMW118); assay: Growth on M9 glucose minimal agar with purine base analogues, vector control strain; conditions: 44 h at 37° C. Note: key: +: good growth; −: no growth.
Method: as §1

[4] = tested on: E. coli strain TG1 (pYDHL1); assay: Growth on M9 glucose minimal agar with purine base analogues, ydhL-amplified strain; conditions: 44 h at 37° C. Note: key: +: good growth; −: no growth.
Method: as §1

## OC[C@H]1O[C@@H](n2cnc3c(O)ncnc32)[C@H](O)[C@@H]1O [Inosine]
[1]; inosine 300 mg/l, E. coli deoD gsk3 (pYDHL1)
  Growth on the minimal medium containing Inosine 300 mg/l: +
[1]; inosine 1000 mg/l, E. coli deoD gsk3 (pYDHL1)
  Growth on the minimal medium containing Inosine 1000 mg/l: +
[1]
  Resistance conferred by ydhL gene overexpression: high-level resistance
[2]; inosine 300 mg/l
  Growth on the minimal medium containing Inosine 300 mg/l: −
[2]; inosine 1000 mg/l
  Growth on the minimal medium containing Inosine 1000 mg/l: −

## Cc1ncnc2nc[nH]c12 [MePur, 6-methylpurine]
B. subtilis 168(pYDHL3); MePur 20 μg/ml
  Growth on the minimal medium containing MePur, 20 μg/ml: +
B. subtilis 168(pYDHL4); MePur 20 μg/ml
  Growth on the minimal medium containing MePur, 20 μg/ml: +
B. subtilis 168; MePur 20 μg/ml
  Growth on the minimal medium containing MePur, 20 μg/ml: −

## Nc1nc2c(ncn2[C@@H]2O[C@H](CO)[C@@H](O)[C@H]2O)c(=O)[nH]1 [Guanosine]
[1]; guanosine 10 mg/l, E. coli deoD gsk3 (pYDHL1)
  Growth on the minimal medium containing Guanosine 10 mg/l: +
[1]; guanosine 15 mg/l, E. coli deoD gsk3 (pYDHL1)
  Growth on the minimal medium containing Guanosine 15 mg/l: −
[1]
  Resistance conferred by ydhL gene overexpression: low-level resistance
[2]; guanosine 10 mg/l
  Growth on the minimal medium containing Guanosine 10 mg/l: −
[2]; guanosine 15 mg/l
  Growth on the minimal medium containing Guanosine 15 mg/l: −

## Nc1nc2nn[nH]c2c(=O)[nH]1 [AzaG, 8-azaguanine]
B. subtilis 168(pYDHL3); AzaG 2 μg/ml
  Growth on the minimal medium containing AzaG, 2 μg/ml: +
B. subtilis 168(pYDHL4); AzaG 2 μg/ml
  Growth on the minimal medium containing AzaG, 2 μg/ml: +
B. subtilis 168(pYDHL4); AzaG 10 μg/ml
  Growth on the minimal medium containing AzaG, 10 μg/ml: +
B. subtilis 168; AzaG 2 μg/ml
  Growth on the minimal medium containing AzaG, 2 μg/ml: −
B. subtilis 168; AzaG 10 μg/ml
  Growth on the minimal medium containing AzaG, 10 μg/ml: −

## Nc1nc(N)c2[nH]cnc2n1 [DAP, 2,6-diaminopurine]
[3]; DAP 400 μg/ml
  Growth on the minimal medium containing DAP, 400 μg/ml: −
[4]; DAP 400 μg/ml
  Growth on the minimal medium containing DAP, 400 μg/ml: +

## Sc1ncnc2nc[nH]c12 [MP, 6-mercaptopurine]
[3]; MP 400 μg/ml
  Growth on the minimal medium containing MP, 400 μg/ml: −
[4]; MP 400 μg/ml
  Growth on the minimal medium containing MP, 400 μg/ml: +

## Nc1ncnc2nn[nH]c12 [AzaA, 8-azaadenine]
B. subtilis 168(pYDHL4); AzaA 2 mg/ml
  Growth on the minimal medium containing AzaA, 2 mg/ml: +
[3]; AzaA 300 μg/ml
  Growth on the minimal medium containing AzaA, 300 μg/ml: −
[4]; AzaA 300 μg/ml
  Growth on the minimal medium containing AzaA, 300 μg/ml: +
B. subtilis 168; AzaA 2 mg/ml
  Growth on the minimal medium containing AzaA, 2 mg/ml: −
